Laboratory results as given in ChEMBL document CHEMBL4402520, “Synthetic routes and structure-activity relationships (SAR) of anti-HIV agents: A key review” (Eur J Med Chem, 2019).
Values after ≈ are worked out from the molar mass of the structure shown.

Legend:
[1] = target: T1, Human immunodeficiency virus type 1 reverse transcriptase (Human immunodeficiency virus 1, UniProt Q72547); experiment: Inhibition of wild type HIV-1 reverse transcriptase
[2] = test system: Human immunodeficiency virus 1; experiment: Antiviral activity against HIV1 3B infected in human C8166 cells; assay type: functional, organism-based
[3] = Selectivity index, ratio of CC50 for human C8166 cells to EC50 for HIV1 3B infected in human C8166 cells; assay type: toxicity, cell-based; settings: read-out: Selectivity Index
[4] = test system: Human immunodeficiency virus 1; experiment: Antiviral activity against HIV1 3B infected in human MT4 cells; assay type: functional, organism-based; settings: Human immunodeficiency virus 1, 3B
[5] = test system: Human immunodeficiency virus; experiment: Antiviral activity against HIV; assay type: functional, organism-based; settings: Human immunodeficiency virus 1
[6] = test system: Human immunodeficiency virus 1; experiment: Antiviral activity against wild type HIV1 3B infected in human MT4 cells using [3H]dGTP by radio-labelled binding assay; assay type: functional, organism-based; settings: Human immunodeficiency virus 1, 3B
[7] = test system: Human immunodeficiency virus; experiment: Antiviral activity against HIV infected in human HeLa cells expressing CD4-LTR-beta-gal; assay type: functional, organism-based; settings: Human immunodeficiency virus 1, HeLa
HeLa = experiment: Cytotoxicity against human HeLa cells expressing CD4-LTR-beta-gal assessed as reduction in cell viability; assay type: functional
[8] = Inhibition of HIV reverse transcriptase; parameters: species or system Human immunodeficiency virus
[9] = target: T1, Human immunodeficiency virus type 1 reverse transcriptase; experiment: Inhibition of HIV-1 reverse transcriptase after 1 hr by ELISA
C8166 = experiment: Cytotoxicity against human C8166 cells assessed as reduction in cell viability; assay type: functional, cell-based
TZM [10] = experiment: Cytotoxicity against human TZM-bl cells; assay type: functional
[11] = test system: Human immunodeficiency virus 1; experiment: Antiviral activity against wild type HIV1 3B infected in human TZM-bl cells; assay type: functional, organism-based; settings: Human immunodeficiency virus 1, 3B
[12] = test system: Human immunodeficiency virus 1; experiment: Antiviral activity against HIV1; assay type: functional, organism-based
[13] = test system: Human immunodeficiency virus 1; experiment: Antiviral activity against wild type HIV1 3B infected in human TZM-bl cells after 4 days by ELISA; assay type: functional, organism-based; settings: Human immunodeficiency virus 1, 3B, 96 h
[14] = Selectivity index, ratio of CC50 for human TZM-bl cells to EC50 for wild type HIV1 3B infected in human TZM-bl cells; assay type: toxicity, cell-based; settings: read-out: Selectivity Index
[15] = test system: Human immunodeficiency virus 1; experiment: Antiviral activity against wild type HIV1; assay type: functional, organism-based
[16] = test system: Human immunodeficiency virus 1; experiment: Antiviral activity against wild type HIV1 3B infected in human TZM-bl cells assessed as viral infection at 50 ug/ml after 1 hr relative to control; assay type: functional; settings: Human immunodeficiency virus 1, 3B
TZM [17] = experiment: Cytotoxicity against human TZM-bl cells assessed as reduction in cell viability after 4 hrs by MTT assay; assay type: functional
[18] = test system: Human immunodeficiency virus 1; experiment: Antiviral activity against HIV1 3B after 48 hrs […]; assay type: functional, organism-based; settings: Human immunodeficiency virus 1, 3B
[19] = test system: Human immunodeficiency virus 2; experiment: Antiviral activity against HIV2 ROD after 48 hrs […]; assay type: functional, organism-based; settings: Human immunodeficiency virus 2, ROD
[20] = Human immunodeficiency virus 1, 3B, C8166

## COC(=O)CCCC=C(c1cc(Cl)c(OC)c(C(=O)SC)c1)c1cc(Cl)c(OC)c(C(=O)SC)c1
[1]
  EC50: 1.6 µM

## CC(C)c1c(CC2CCCCC2)nc(SCC(=O)c2ccccc2)[nH]c1=O
[2]
  EC50: 12 to 101000 pM
[3]
  selectivity ratio: 691 to 6.32e+06

## CC(C)c1c(CC2CCCCC2)nc(SCc2ccccc2)[nH]c1=O
[2]; [20]
  EC50: 25 pM
[3]
  selectivity ratio: 691 to 6.32e+06

## CCc1c(CC2CCCCC2)nc(SCC(=O)c2ccccc2)[nH]c1=O
[2]; [20]
  EC50: 12 pM
[3]
  selectivity ratio: 6.32e+06

## Cc1cc(C)cc(S(=O)(=O)c2c(C(=O)NCc3ccncc3)[nH]c3ccc(Cl)cc23)c1
[4]
  EC50: 0.002 µM

## Cc1cc(C)cc(Cn2c(=O)cc(N)n(Cc3ccncc3)c2=O)c1
[5]
  EC50: 0.03 µM

## Cc1cccc(N2C(=O)CSC2c2c(F)cccc2F)n1 (configuration not stated)
[6]
  IC50: 0.082 µM

## O=C(O)/C(O)=C/C(=O)c1cn(Cc2ccc(F)cc2)c2cc(N3CCN(CCCCl)CC3)ccc2c1=O
[7]
  IC50: 0.05 µM
HeLa
  CC50: > 50 µM

## COc1ccc(N2CCN(C(=O)CN(Cc3ccccc3)c3ccc(Cl)cc3)CC2)cc1
[8]
  IC50: 77.5 µM

## O=C(CN(Cc1ccccc1)c1ccc(Cl)cc1)N1CCN(c2cccc(Cl)c2Cl)CC1
[8]
  IC50: 12.3 µM

## COc1ccccc1N1CCN(C(=O)CN(Cc2ccccc2)c2ccc(Cl)cc2)CC1
[8]
  IC50: 16.3 µM

## O=C(CN(Cc1ccccc1)c1ccc(Cl)cc1)N1CCN(C(c2ccccc2)c2ccccc2)CC1
[8]
  IC50: > 100 µM

## O=C(CN(Cc1ccccc1)c1ccc(Cl)cc1)N1CCN(c2ccc([N+](=O)[O-])cc2)CC1
[8]
  IC50: 14.2 µM

## COc1ccc2c(c1)CCCN2CCC(=O)N1CCN(c2cccc(Cl)c2)CC1
[9]
  IC50: 18.6 µM
C8166
  IC50: 97.5 µg/mL (≈ 236 µM)
[3]
  selectivity ratio: 5.3

## COC(=O)C(N)(c1c[nH]c2ccc(F)cc12)C(F)(F)F (configuration not stated)
TZM [10]
  CC50: 49.3 µM
[11]
  EC50: 0.045 µM

## CC(C)(C)OC(=O)n1ccc2ccc(-c3ccc4ccn(Cc5cccc(C(=O)O)c5)c4c3)cc21
[12]
  IC50: 0.8 µM

## O=c1[nH]c(=O)n([C@H]2C[C@H](O)[C@@H](CO)O2)cc1CCCOc1ccc(OCc2ccccc2)cc1
[12]
  IC50: 2.18 µM

## CC(C)(NC(=O)OCc1ccccc1)c1cc(O)c(O)c(C(=O)NCc2ccccc2Cl)c1
[12]
  EC50: 0.14 µM

## O=C1OC(c2ccccc2Cl)C(Cl)c2ccccc21 (configuration not stated)
[13]
  EC50: 12.3 µM
TZM [10]
  CC50: 136 µM
[14]
  selectivity ratio: 11.1

## CCOC(=O)C(N)(c1c[nH]c2cccc(C(=O)OC)c12)C(F)(F)F (configuration not stated)
TZM [10]
  CC50: 110 µM
[11]
  EC50: 0.06 µM

## N#Cc1ccc(Nc2nccc(Oc3ccccc3F)n2)cc1
[15]
  EC50: 0.0058 µM

## COc1ccc(CNC(=O)c2cc(C(C)(C)NC(=O)OCc3ccccc3)cc(O)c2O)cc1
[12]
  EC50: 0.15 µM

## NC1=CNC(=O)/C1=N/Nc1ccc(Br)cc1
[16]
  inhibition at 50 µg/mL: 98%
TZM [17]
  Activity: 40%

## O=C(CSC1[Se]N=NC1c1ccc(Cl)c(Cl)c1)Nc1ccccc1Br (configuration not stated)
[18]
  EC50: > 23.6 µM
[19]
  EC50: > 23.6 µM

## O=c1[nH]c(=O)n([C@H]2C[C@H](O)[C@@H](CO)O2)cc1C#CCOc1ccc(OCc2ccccc2)cc1
[12]
  IC50: 6.68 µM
